# From patent publication US20180064662A1 (THE GENERAL HOSPITAL CORPORATION, priority 2015, published 2018)
# Key:
# [1] = patients with type 2 diabetes taking this drug; cited from earlier work
# human PSC viability = experiment: MTT viability assay on PSCs; type: cell-based
# [2] = test system: RAW 264.7 (mouse leukemic monocyte-macrophages); experiment: RAW 264.7 macrophages treated with metformin in vitro (qPCR, Western blot); type: cell-based
# Procedure: Following treatment, cells were collected for RNA and protein extraction in order to perform subsequent analysis of gene expression of cytokines and polarization markers, and for analysis of signaling and metabolic pathways. […] Cells were collected for protein extraction for analysis of the activation of fibrosis-related pathways. […] The cells were fixed with 4% paraformaldehyde and blocked with 5% normal donkey serum for 1 h. They were incubated with the designated primary antibodies overnight at 4° C. then for 2 h with the appropriate secondary antibodies at RT. PBS was used for all washes and the stained samples were mounted with Prolong Gold with DAPI. Images were acquired using a confocal microscope. The antibodies used and image acquisition settings are described below. Both cell types were grown in Dulbecco's modified Eagle's medium (Sigma, St. Louis, Mo.) supplemented with 5% (v/v) heat inactivated fetal bovine serum (FBS; Sigma), 100 units/ml penicillin and streptomycin. Cells were cultured at 37° C. in a humidified atmosphere including 5% CO2.
# Immediately following excision, tumor tissue was snap frozen and stored in liquid nitrogen. Total RNA was extracted and relative gene expression for macrophage M1/M2 markers was determined using a Sybr-green based standard protocol. In addition, total RNA was extracted and relative gene expression was determined using RT2 Profiler PCR Arrays system (Qiagen) on a Stratagene Mx3000P QPCR System using pre-made pathway-focused arrays (“Fibrosis”-Cat. Number: PAMM011Z; “Epithelial to Mesenchymal Transition (EMT)”-Cat. Number: PAMM090Z; “TGF-β signaling targets”-PAMM235Z; “Extracellular Matrix & Adhesion Molecules”-Cat. Number: PAMM013Z; and “Common cytokines ”-Cat. Number: PAMM021Z).
# Each tumor sample was homogenized directly in lysis buffer for protein extraction. 20 ug of denatured protein per sample was loaded on 7%, 10% and 12% SDS-polyacrylamide gels. Antibodies used: phospho-p38 MAPKT^180/Y182 and p38; phospho-JNK (SAPK/JNK)^Thr183/Tyr185 and JNK; phospho-AKT^Ser473 and AKT, phospho-ERK(p44/42 MAPK)^T202/Y204 and ERK; phospho-NF-κB^Ser536 and NK-κB; p65^Ser536; phospho-Smad2^Ser465/467 and Smad2; phospho-IGF-I Receptor β^Tyr1135 and IGF; Phospho-IRS-1^Ser612 and IRS; IR; phpspho-stat3^Tyr705 and stat3; Phospho-AMPKα^Thr172 and Ampkα; phospho-Ampkβ^Ser108 and Ampk; phospho-ACC^Ser79 and ACC; Phospho-PDGF Receptor β^Tyr751 and PDGF Receptor β and snail, c-cadherin and vimentin, TGF-β, β-catenin, twist, LC3B. […] Quantification of protein expression relative to total receptor or β-actin was obtained using Image J software.
# pancreatic cancer = settings: newly diagnosed pancreatic cancer cases, diabetic patients; cited from earlier work
# human pancreatic cancers = experiment: HA and collagen-I staining of human PDAC surgical samples, patients with or without metformin; type: in vivo
# From the text: Human samples of pancreatic cancer were obtained from the Massachusetts General Hospital tissue repository. Written informed consent from the donor or the next of kin was obtained for the use of these samples for research purposes. Tumors selected received no prior chemotherapy or radiation therapy before the surgical specimen was collected at the time of tumor resection. A total of 28 samples were randomly selected from this subset of samples. Body mass index was obtained for the respective sample. […] Paraffin sections were stained for collagen-I and HA as described below. Images were acquired using confocal microscopy and quantified using Matlab. Data were analyzed anonymously.
# For analysis of frozen sections of mouse tumor tissues, the tumors were excised and frozen in optimal cutting temperature compound (Tissue-Tek). Transverse tumor sections, 10 μm thick, were immunostained with specific antibodies. To obtain mosaic images of tumor sections, an Olympus FV1000 confocal laser-scanning microscope was used. A 10× air objective acquired 1260-μm square tiles, and an automated stage scanned throughout the entire cross-section of tumor tissue. The imaged tiles were stitched into a final mosaic image using Olympus software. Antigen expression was quantified by measuring the area occupied by the stain of interest normalized by the area of DAPI-stained nuclei (i.e., unit less), and analyzed using a custom algorithm in MATLAB (The MathWorks). Identical settings and thresholds for analysis were used for all tumors. Antibodies used for immunofluorescence were the following: Collagen-I [LF-68 antibody, 1:50 dilution, provided by Dr Larry Fisher (NIDCR)]; Hyluronan (biotinylated hyaluronan proteoglycan fragment, 385911, Calbiochem, 1:200 dilution); αSMA (C6198 antibody, Sigma, 1:500 dilution); and F4/80 (MCA497A488 antibody, ABDserotec, 1:200 dilution). Cy3-, Cy5- or FITC-conjugated secondary antibodies were used for the detection of signals by confocal microscopy. Slides were counterstained with DAPI for nuclear staining.
structure (smiles),measurement,setting,value
"CN(C)C(=N)N=C(N)N [metformin, 3-(diaminomethylidene)-1,1-dimethylguanidine]",approximate plasma concentration of metformin,[1],~0.05 mM
same,doses at which metformin significantly reduces PSC viability,"human PSC viability; 48 h, MTT",> 7.5 mM
same,viability of PSCs,human PSC viability; metformin 1 mM,does not substantially affect the viability
same,activation of AMPKα and ACC in macrophages,[2]; ACC evident only in serum added media,activation of AMPKα
same,"activation of STAT3, JNK, AKT and p38 in macrophages","[2]; concentrations lower than 0.2 mM, Western blot",reduced activation
same,gene expression of M2 markers such as Arg-1 and IL-10,"[2]; metformin 0.05 mM, 48 h",reduced M2 markers
same,gene expression of M1 and M2 markers,[2]; metformin at doses higher than 0.2 mM,reduced both M1 and M2 markers
same,reduced risk of death,pancreatic cancer,32%
same,collagen-I expression,human pancreatic cancers; either body weight group,no impact
same,levels of HA lower than in patients not taking metformin,"human pancreatic cancers; overweight or obese patients, chemo/radiotherapy naive PDAC surgical samples",30%
same,HA levels,human pancreatic cancers; patients of normal weight,no difference
